Consider 5 compounds from ChEMBL document CHEMBL1201862, “PubChem BioAssay data set” (2004).

In one experiment the test system is HEK293. In words: cytotoxicity in HEK293T NF-kB-Luc cells, SAR follow-up, cytotoxicity control for NF-kB activator project, cell-based, resazurin fluorescence (AID 493251). Format: functional. Particulars: Homo sapiens. In general terms: The colour change of resazurin is a common sign of viable cells or microbes.
Experiment [1] is described as follows: inhibitors of firefly luciferase expression or activity, dose response, H4 neuroglioma cells, luminescence (AID 1990). Format: functional, cell-based.
For experiment [2], the target named is T1, Heat shock factor protein 1 (Mus musculus, UniProt P38532).
T1 sequence (P38532 whole entry): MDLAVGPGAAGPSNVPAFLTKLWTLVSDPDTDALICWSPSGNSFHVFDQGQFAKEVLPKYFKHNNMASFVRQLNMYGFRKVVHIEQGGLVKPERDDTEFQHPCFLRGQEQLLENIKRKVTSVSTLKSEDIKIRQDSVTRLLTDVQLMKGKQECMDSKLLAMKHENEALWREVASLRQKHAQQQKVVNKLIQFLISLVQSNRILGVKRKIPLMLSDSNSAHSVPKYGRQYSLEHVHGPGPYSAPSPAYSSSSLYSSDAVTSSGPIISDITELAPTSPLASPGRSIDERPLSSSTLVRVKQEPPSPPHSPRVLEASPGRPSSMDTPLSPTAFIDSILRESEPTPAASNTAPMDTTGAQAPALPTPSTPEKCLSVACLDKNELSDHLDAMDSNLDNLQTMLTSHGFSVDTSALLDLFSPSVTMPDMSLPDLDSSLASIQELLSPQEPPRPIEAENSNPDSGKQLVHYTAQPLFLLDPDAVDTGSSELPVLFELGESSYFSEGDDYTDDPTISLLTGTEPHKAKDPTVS
In words: inhibition of MG132-induced HSE-luciferase signal, confirmation, cell-based, NIH3T3, luminescence, dose retest (AID 2382).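 Further: NIH3T3 fibroblasts with HSF1-driven luciferase reporter stressed by proteasome inhibitor MG132; luminescence from HSF1-driven luciferase expression after 8 hours of MG132 stress.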 Format: functional.

The nature of experiment [3]: inhibitors of SNCA 5'UTR-driven reporter translation, confirmation, H4 neuroglioma cells, luminescence (AID 1988). Format: functional, cell-based.
The target in a further experiment is Melanocortin receptor 4 (Homo sapiens, UniProt P32245). The class given is functional, cell-based.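 Further: Cell-based assay with luminescence read-out, confirmatory dose-response testing for agonist activity of biased ligands at MC4R; human U2OS cells with tagged receptor and beta-arrestin; potency of agonists that increase receptor coupling to beta-arrestin.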
For a further experiment, the system named is H9c2. In words: cells. Format: functional, cell-based. Particulars: Rattus norvegicus, H9c2, Myocardium.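 Further: confirmatory concentration-response retest of ultra-high-throughput screening hits for modulation of myocardial damage; cell death induced by hydrogen peroxide oxidative stress; compound pretreatment for 60 min then peroxide exposure for 2 h; potency is for protecting the cells against peroxide damage rather than for killing them.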
The target of experiment [4] is T2, High affinity choline transporter 1 (Homo sapiens, UniProt Q9GZV3).
T2 sequence (Q9GZV3 whole entry): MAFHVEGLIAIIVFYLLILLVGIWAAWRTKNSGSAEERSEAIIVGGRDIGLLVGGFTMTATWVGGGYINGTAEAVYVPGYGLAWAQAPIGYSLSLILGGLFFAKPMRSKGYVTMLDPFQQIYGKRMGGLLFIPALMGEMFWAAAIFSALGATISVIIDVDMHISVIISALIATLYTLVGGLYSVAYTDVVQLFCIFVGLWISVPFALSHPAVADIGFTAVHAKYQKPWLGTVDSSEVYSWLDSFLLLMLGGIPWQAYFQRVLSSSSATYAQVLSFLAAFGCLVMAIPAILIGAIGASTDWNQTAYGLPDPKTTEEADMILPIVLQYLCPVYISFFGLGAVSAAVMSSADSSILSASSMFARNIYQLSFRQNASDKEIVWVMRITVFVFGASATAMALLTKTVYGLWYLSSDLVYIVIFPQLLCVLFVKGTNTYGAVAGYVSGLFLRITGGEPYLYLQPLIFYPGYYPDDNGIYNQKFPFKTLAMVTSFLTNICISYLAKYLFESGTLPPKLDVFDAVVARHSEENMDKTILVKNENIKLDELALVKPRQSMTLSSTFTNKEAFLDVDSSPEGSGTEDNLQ
In words: CHT inhibitors, dose response, cell-based, 5-point CRC, membrane potential dye (AID 504840). The class given is functional.

Experiment [5] has as its target T2, High affinity choline transporter 1. Kind of experiment: CHT inhibitors, dose response, cell-based, 10-point CRC, membrane potential dye (AID 588401).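 Further: membrane potential dye fluorescence of choline-evoked depolarization via CHT.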 Format: functional.
The target of experiment [6] is T3, Polyadenylate-binding protein 1 (Homo sapiens, UniProt P11940). In words: PABP1 MLLE–PAM2 interaction inhibitors, dose response, miRNA deadenylation inhibitor project, biochemical, fluorescence polarization, Cy5-PAM2 peptide, secondary (AID 602260). The note with it: read-out: IC50_Mean. The class given is functional.
In experiment [7] the target is T3, Polyadenylate-binding protein 1. Kind of experiment: PABP1 MLLE–PAM2 binding inhibitor potency, dose response, biochemical, fluorescence polarization, FITC-PAM2 peptide (AID 602259). Format: functional. Particulars: read-out: IC50_Mean. A general note: Fluorescence polarisation rises when a labelled molecule tumbles more slowly, as on binding a larger partner.

The target of a further experiment is Protein Wnt-3a (Mus musculus, UniProt P27467). Kind of experiment: Wnt3a-driven reporter signaling inhibition, dose response, selectivity assay for Gli-SUFU antagonist project, Wnt-LIGHT cells, luminescence (AID 651570).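 Further: Wnt-LIGHT reporter cells stimulated with conditioned medium from Wnt3a-producing cells.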 Format: functional. The note with it: read-out: IC50_Mean.
For another experiment, the system named is INS1. In words: beta cell apoptosis inhibitors, cytokine rescue, dose response, luminescence, retest (AID 449756).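 Further: cell death triggered by IL-1 beta plus TNF-alpha plus IFN-gamma mixture; protective hits raise ATP signal compared with cytokine alone wells.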 The class given is functional, cell-based. Particulars: Rattus norvegicus.
The nature of experiment [8]: cytotoxicity in HEK-293T cells, dose response, cytotoxicity control for TCR NF-kB inhibitor project, luminescence, T-cell screen hits (AID 489026).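 Further: cells exposed to compound about 14 hours before the viability readout.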 The class given is functional, cell-based.

The source made the active and inactive calls.

T3 sequence (P11940 whole entry): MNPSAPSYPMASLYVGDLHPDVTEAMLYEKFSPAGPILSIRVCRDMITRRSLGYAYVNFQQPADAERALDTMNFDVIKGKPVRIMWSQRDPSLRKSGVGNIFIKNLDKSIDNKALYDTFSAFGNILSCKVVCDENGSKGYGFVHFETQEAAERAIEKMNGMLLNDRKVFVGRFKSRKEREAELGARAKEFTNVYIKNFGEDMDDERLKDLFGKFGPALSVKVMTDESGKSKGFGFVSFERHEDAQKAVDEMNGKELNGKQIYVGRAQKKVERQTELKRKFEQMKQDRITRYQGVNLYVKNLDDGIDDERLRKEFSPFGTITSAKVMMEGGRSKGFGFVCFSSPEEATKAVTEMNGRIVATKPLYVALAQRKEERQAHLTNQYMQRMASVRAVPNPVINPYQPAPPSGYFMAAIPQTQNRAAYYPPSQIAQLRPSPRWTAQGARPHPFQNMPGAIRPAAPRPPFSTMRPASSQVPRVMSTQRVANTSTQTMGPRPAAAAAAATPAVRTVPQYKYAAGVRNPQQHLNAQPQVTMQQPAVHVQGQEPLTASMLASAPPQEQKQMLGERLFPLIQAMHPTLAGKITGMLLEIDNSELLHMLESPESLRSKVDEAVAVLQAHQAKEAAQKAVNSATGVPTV
Chain of Melanocortin receptor 4 (P32245 whole entry): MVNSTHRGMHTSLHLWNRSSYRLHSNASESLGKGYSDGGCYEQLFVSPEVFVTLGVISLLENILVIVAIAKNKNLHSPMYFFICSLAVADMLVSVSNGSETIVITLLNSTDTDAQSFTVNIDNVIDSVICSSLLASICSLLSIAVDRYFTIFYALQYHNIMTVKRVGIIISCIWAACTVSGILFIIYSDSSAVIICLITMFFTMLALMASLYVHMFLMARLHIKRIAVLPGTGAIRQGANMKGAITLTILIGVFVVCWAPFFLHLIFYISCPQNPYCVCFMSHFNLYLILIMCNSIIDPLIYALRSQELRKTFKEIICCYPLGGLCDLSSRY
Chain of Protein Wnt-3a (P27467 whole entry): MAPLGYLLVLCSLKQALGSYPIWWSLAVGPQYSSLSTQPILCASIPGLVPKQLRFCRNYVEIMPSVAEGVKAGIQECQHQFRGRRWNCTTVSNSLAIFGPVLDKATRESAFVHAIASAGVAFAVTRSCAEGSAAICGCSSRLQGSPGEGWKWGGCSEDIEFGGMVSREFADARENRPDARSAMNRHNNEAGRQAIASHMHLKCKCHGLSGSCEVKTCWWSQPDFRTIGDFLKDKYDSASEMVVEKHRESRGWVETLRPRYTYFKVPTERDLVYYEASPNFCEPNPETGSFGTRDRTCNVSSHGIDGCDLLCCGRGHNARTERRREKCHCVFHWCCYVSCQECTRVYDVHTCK

In general, EC50 refers to the concentration needed to bring the measured effect to its halfway point. Regarding `CCc1ccc(-c2nc(CSCC(=O)NCc3ccco3)c(C)o2)cc1`, the IC50 with HEK293 was > 80 µM (inactive). Besides, the values for the 50% effective concentration (EC50) in experiment [1], in experiment [2] and in experiment [3] were 14.5 µM (active), 0.462 µM (active) and 12.8 µM (active), respectively.
As to `COc1ccc(-c2cc(NC=O)c3ncc(-c4ccccc4)n3c2)cc1OC`, the EC50 on Melanocortin receptor 4 was > 89.2 µM (inactive). In the experiment on H9c2, the IC50 is > 79 µM (inactive).
For the compound `Cc1ccc[n+](CC(=O)c2ccc(Cl)cc2)c1`, the results for the IC50 in experiment [4] and in [5] were 1.82 µM (active) and 0.946 µM (active), respectively.
Consider `CC(=O)Nc1cc(-c2ccccc2N(C)C)cn2c(-c3ccc(F)c(Cl)c3)cnc12`, for which the IC50 in experiment [6] and in experiment [7] was > 66 µM (inactive) in each case. The EC50 on Melanocortin receptor 4 is > 89.2 µM (inactive).
Broadly, the AC50 is the midpoint of the concentration-response curve, whichever way the signal moves. With `CC(=O)c1c(C)[nH]c(C(=O)OCC(=O)Nc2ccc(C)cc2[N+](=O)[O-])c1C`, the values for the IC50 (on Protein Wnt-3a; in experiment [8]) were 0.245 µM (active) and > 80 µM (inactive), respectively. In the experiment on INS1, the AC50 is 1.12 µM (active).
